In the supplement of paper PMC10933113:
± gives the uncertainty stated by the source.

What was measured:
[1] = system: KeratinoSens (HaCaT ARE-luciferase) cells; test: cytotoxicity AC50 (CellTiter-Fluor viability); higher = less cytotoxic; conditions: exposure time: 24 h
[2] = system: KeratinoSens (HaCaT ARE-luciferase) cells; test: efficacy of ARE luciferase induction relative to DMSO (% activity over DMSO); higher = stronger induction; conditions: exposure time: 24 h
[3] = system: KeratinoSens (HaCaT ARE-luciferase) cells; test: AC50 of Nrf2/ARE luciferase induction; higher = less potent; conditions: exposure time: 24 h
THP-1 = test: efficacy of IL-8 induction relative to DMSO (% activity); higher = stronger induction; conditions: exposure time: 18 h
[4] = system: cysteine peptide Ac-RFAACAA-COOH; test: efficacy of cysteine peptide change (negative = depletion) (% activity); higher = less depletion; conditions: incubation time: 24 h
[5] = system: lysine peptide Ac-RFAAKAA-COOH; test: efficacy of lysine peptide change (negative = depletion) (% activity); higher = less depletion; conditions: incubation time: 24 h
[6] = system: cysteine peptide Ac-RFAACAA-COOH; test: AC50 of cysteine peptide concentration-response (direction given by sign of efficacy); higher = less potent; conditions: incubation time: 24 h

Compound | cytotoxicity AC50 [1] [µM] | efficacy of ARE luciferase induction [2] | AC50 of Nrf2/ARE luciferase induction [3] [µM] | efficacy of IL-8 induction (THP-1) | efficacy of cysteine peptide change [4] | efficacy of lysine peptide change [5] | AC50 [6] [µM]
C=CC(=O)OCCCCOC(=O)C=C [1,4-Butanediol diacrylate] | 43 ± 2.8 | 336 ± 19 | 35.5 | 16.2 ± 1.7 | – | – | –
COc1cc(C(C)C)c2c(c1)S(=O)(=O)N(COc1cc(=O)n3cccc(OCCN4CCCCC4)c3n1)C2=O | – | 509 ± 320 | 12.6 | 54.6 ± 30 | 17.7 ± 15 | -2.72 ± 25 | –
Cc1c(C)n(CCN(C)C)c2ccc(C(=O)OCCN(C)C)cc12 [Amindocate] | 28.3 ± 9.3 | 96.2 ± 38 | 29.8 | -1.77 ± 3.1 | 9.57 ± 11 | 58.5 ± 9.6 | –
NNC(N)=S [Thiosemicarbazide] | 28.3 ± 3.2 | 64.8 ± 15 | 15.8 | 35.8 ± 29 | -40.9 ± 11 | 9.67 ± 17 | –
CC(C)=CCC1=C(O)c2ccccc2C(=O)C1=O [Lapachol] | – | 65.3 ± 5.4 | 26.7 | 25.8 ± 1.6 | 26.5 | -2.31 ± 13 | –
Oc1ccc2ccccc2c1N=Nc1ccccc1 [C.I. Solvent Yellow 14] | – | 49.8 ± 19 | 28.2 | 5.32 ± 9.2 | -94.7 ± 4 | -31.1 ± 6.5 | 10.8 ± 3.5
C/C=C/C=C/C=O [2,4-Hexadienal] | – | 427 ± 46 | 73.7 | 12.8 ± 12 | -129 ± 9.8 | -110 ± 23 | 17 ± 5
COP(=O)(OC)O/C(=C\Cl)c1cc(Cl)c(Cl)cc1Cl [Z-Tetrachlorvinphos] | 53.6 ± 16 | 72.1 ± 13 | 41.8 | 1.71 ± 3 | 4.88 ± 8.5 | 75.2 ± 24 | –
CCOc1ccc2nc(S(N)(=O)=O)sc2c1 [Ethoxzolamide] | – | 58.7 ± 28 | 25.3 | 10.3 ± 4.8 | 2.67 ± 4.6 | 35.1 ± 5 | –
OC[P+](CO)(CO)CO [Tetrakis(hydroxymethyl)phosphonium SO4] | – | 126 ± 16 | 29.4 | 4.18 ± 7.2 | 43.1 ± 6.6 | -40.3 ± 14 | –
Cc1ccc2c(c1[N+](=O)[O-])C(=O)c1ccccc1C2=O [2-Methyl-1-nitroanthraquinone] | – | 81.9 ± 8.7 | 34.8 | 12 ± 10 | -26 ± 7.3 | 0.29 ± 19 | –
C[C@@H]1O[C@@H](O[C@@H]2C=C3CC[C@@H]4[C@H](CC[C@]5(C)[C@@H](c6ccc(=O)oc6)CC[C@]45O)[C@@]3(C)CC2)[C@H](O)[C@H](O)[C@H]1O [Proscillaridin] | 0.51 ± 0.11 | 246 ± 170 | 0.27 | 38.2 ± 14 | 2.01 ± 3.5 | 14.3 ± 11 | –
C/C=C1\C(=O)C[C@H]2[C@@H]3CCC4=CC(=O)CC[C@]4(C)[C@H]3CC[C@]12C [Guggulsterone Z] | – | 135 ± 63 | 53.6 | 7.24 ± 12 | 2.81 ± 4.9 | 11.4 ± 10 | –
O=C(O)Cc1cc(I)c(Oc2cc(I)c(O)c(I)c2)c(I)c1 [Tetrac] | – | 377 ± 69 | 43.1 | 0 | -91.9 ± 9.5 | 6.09 ± 18 | 33.5 ± 7.5
COc1ccc(C(c2ccc(OC)cc2)C(Cl)(Cl)Cl)cc1 [Methoxychlor] | – | 50.9 ± 18 | 43.2 | 21.1 ± 3.3 | 2.72 ± 4.7 | -3.51 ± 15 | –
Clc1ccccc1-c1nc(-c2ccncc2)no1 [Pifexole] | – | 60.8 ± 7.6 | 11.4 | 4.35 ± 7.5 | 3.16 ± 5.5 | 10.5 ± 18 | –

Compound | cytotoxicity AC50 [1] [µM] | efficacy of ARE luciferase induction [2] | AC50 of Nrf2/ARE luciferase induction [3] [µM] | efficacy of IL-8 induction (THP-1) | efficacy of cysteine peptide change [4] | efficacy of lysine peptide change [5] | AC50 [6] [µM]
CCCCOCN(C(=O)CCl)c1c(CC)cccc1CC [Butachlor] | 41.4 ± 2.8 | 324 ± 31 | 70.8 | 22.1 ± 11 | -24.1 ± 21 | 2.3 ± 11 | –
CC(C)=CC1C(C(=O)OCc2coc(Cc3ccccc3)c2)C1(C)C (stereo not given) [Resmethrin] | – | 69.7 ± 30 | 46.5 | 4.15 ± 7.2 | -122 ± 8.3 | -58 ± 4.8 | 58.1 ± 19
c1ccc2cc3c(ccc4ccccc43)cc2c1 [Benz(a)anthracene] | – | 126 ± 33 | 40 | 32.1 ± 4.5 | -97.8 ± 2.9 | -36.8 ± 14 | 12.2 ± 1.7
O=C1OC(OC(=O)c2cccnc2Nc2cccc(C(F)(F)F)c2)c2ccccc21 (stereo not given) [Talniflumate] | – | 1280 ± 66 | 35.5 | 9.09 ± 8.3 | -29.7 ± 11 | 85.3 ± 9.9 | –
O=C(NS(=O)(=O)/C=C/c1ccccc1)c1ccc(F)cc1Cl | – | 82.9 ± 22 | 38.7 | 0 | 5 ± 8.7 | 67 ± 6.6 | –
C=C1CC[C@H](O)C/C1=C/C=C1\CCC[C@]2(C)[C@@H]([C@H](C)/C=C/[C@H](C)C(C)C)CC[C@@H]12 [Ergocalciferol*] | – | 78.7 ± 43 | 34.2 | 20.2 ± 3.7 | -99.4 ± 8.8 | -20.5 ± 4.3 | 28.3 ± 9.3
CC#Cc1cc(C)nc(Nc2ccccc2)n1 [Mepanipyrim] | – | 73.3 ± 15 | 47.4 | 4.67 ± 8.1 | -2.96 ± 5.1 | 48.4 ± 24 | –
Nc1nnc(-c2ccc([N+](=O)[O-])o2)o1 [2-Amino-5-(5-nitro-2-furyl)-1,3,4-oxadiazole] | – | 45.2 ± 31 | 26.2 | 4.08 ± 7.1 | -4.29 ± 3.9 | -11.9 ± 11 | –
Cc1ccc2c(c1N)C(=O)c1ccccc1C2=O [1-Amino-2-methylanthraquinone] | – | 55.7 ± 35 | 37.8 | 0 | -101 ± 4.8 | -8.55 ± 7.6 | 24.3 ± 3.4
O=C(NS(=O)(=O)/C=C/c1cccs1)c1ccc(F)cc1Br | – | 56.2 ± 110 | 14.1 | 4.43 ± 7.7 | -6.04 ± 5.4 | 49.7 ± 18 | –
Cc1cc(C2CC2)nc(Nc2ccccc2)n1 [Cyprodinil] | – | 41.8 ± 10 | 35.1 | 2.31 ± 4 | 6 ± 10 | 57 ± 8.8 | –
O=C(O)Cn1c(C(=O)Nc2nc(-c3ccccc3Cl)cs2)cc2ccccc21 [Lintitript] | – | 155 ± 87 | 32.9 | 8.96 ± 8.3 | 1.07 ± 9.6 | -12.9 ± 12 | –
O=C(CCCCCCC(=O)Nc1ccccc1)NO [Vorinostat (SAHA)] | 11.4 ± 2.1 | 597 ± 130 | 11.7 | 7.76 ± 8.9 | 0 | 11.4 ± 21 | –
O=c1cc(-c2ccccc2)oc2cc(O)cc(O)c12 [Chrysin] | – | 210 ± 48 | 53.6 | 13.2 ± 3.6 | -10.9 ± 9.8 | 22 ± 20 | –
OC12N=C(c3ccccc3)SC1Cc1cc(Cl)ccc12 (stereo not given) [HMR1426] | – | 86.8 ± 69 | 28.9 | 0 | – | – | –
